Laboratory results published in patent US20250011318A1 (ARCUS BIOSCIENCES, INC., priority 2023, published 2025).

What was measured:
Cbl-b = biological target: T1, Cbl-b (Homo sapiens, UniProt Q13191); assay: Cbl-b probe displacement HTRF binding assay; details: 0.4 nM biotinylated Cbl-b, 150 nM BODIPY probe
T1 construct: biotin (biotinylated)
Method: The affinity with which compounds of the present disclosure bind to Cbl-b was assessed using probe displacement homologous time resolved fluorescence (HTRF) assays. The assays used a BODIPY™ conjugated probe (Example 54 from WO 2020264398) and biotinylated Cbl-b. The assays were performed in assay buffer consisting of 20 mM Hepes, 150 mM NaCl, 0.01% Triton X-100, 0.5 mM TCEP, 0.01% BSA. On the day of the assay, a 20 point, 1:2 master serial dilution of each compound was prepared in DMSO to span a final concentration range of 10 μM to 0 nM. Two hundred nanoliters of diluted compound was added to each well of a 384-well plate. Fifteen microliters of biotinylated—Cbl-b resuspended in assay buffer were added to each well and the plate incubated for 60 minutes at room temperature prior to addition of 5 μL of BODIPY™ probe in assay buffer. Final assay conditions included 0.4 nM of Cbl-b and 150 nM of BODIPY™ probe. After a further 15 minutes of incubation at room temperature, 5 μl of Streptavidin-Terbium cryptate reagent at 5-fold final concentration was added to each well of the 384-well plate. Binding of a probe to Cbl-b results in an increase of HTRF signal. HTRF signal was measured by Envision plate reader, while competition of a compound of the present disclosure with probe results in a decrease of signal. Percentage maximum activity in each test well was calculated based on DMSO (maximum activity, 0% displacement) and no protein control wells (baseline activity, 100% displacement). Binding affinity was determined from a dose response curve fitted using a standard four parameter fit equation. See Table 3 for data for compounds (Cbl-b Binding (IC50)).

Jurkat cells = assay: IL-2 secretion assay in CD3/CD28-activated Jurkat cells (AlphaLISA); format: cell-based, human; details: CD3/CD28 T Cell Activator, 24 h, IL-2 AlphaLISA
Method: Certain compounds were also evaluated in an IL-2 secretion assay. On the day of the assay, a 16 point, 1:2 master serial dilution of each compound was prepared in Opti-MEM to span a final concentration range of 10 μM to 300 pM. Assays were setup in CORNING® tissue culture-treated 384-well microplates containing 60 nL of each dilution. Jurkat cells grown in RPMI-1640 supplemented with 10% FBS, 1% Glutamax, and 1% Pen/Strep were collected, resuspended in Opti-MEM. 50,000 cells/well and added to the compound plates. After a short spin (1200 rpm for 1 min), the plates were incubated at 37° C. for 1 hour. The cells were activated by adding 15 μL of IMUNOCULT™ Human CD3/CD28 T Cell Activator (STEMCELL Technologies) diluted in Opti-MEM. After 24 h of incubation at 37° C., aliquots of culture supernatants were transferred to OptiPlate-384 (PerkinElmer) microplates. The level of IL-2 secretion in the supernatants was then determined using the IL-2 (human) AlphaLISA Detection Kit (PerkinElmer) according to the manufacturer's recommendations. The AlphaLISA signal was measured using an EnVision plate reader (PerkinElmer). EC50 values were determined by fitting the data to a standard 4-parameter logistic equation. See Table 3 for data for select compounds (IL-2 Secretion (EC50)).

T1 sequence (Q13191 whole entry, species assumed): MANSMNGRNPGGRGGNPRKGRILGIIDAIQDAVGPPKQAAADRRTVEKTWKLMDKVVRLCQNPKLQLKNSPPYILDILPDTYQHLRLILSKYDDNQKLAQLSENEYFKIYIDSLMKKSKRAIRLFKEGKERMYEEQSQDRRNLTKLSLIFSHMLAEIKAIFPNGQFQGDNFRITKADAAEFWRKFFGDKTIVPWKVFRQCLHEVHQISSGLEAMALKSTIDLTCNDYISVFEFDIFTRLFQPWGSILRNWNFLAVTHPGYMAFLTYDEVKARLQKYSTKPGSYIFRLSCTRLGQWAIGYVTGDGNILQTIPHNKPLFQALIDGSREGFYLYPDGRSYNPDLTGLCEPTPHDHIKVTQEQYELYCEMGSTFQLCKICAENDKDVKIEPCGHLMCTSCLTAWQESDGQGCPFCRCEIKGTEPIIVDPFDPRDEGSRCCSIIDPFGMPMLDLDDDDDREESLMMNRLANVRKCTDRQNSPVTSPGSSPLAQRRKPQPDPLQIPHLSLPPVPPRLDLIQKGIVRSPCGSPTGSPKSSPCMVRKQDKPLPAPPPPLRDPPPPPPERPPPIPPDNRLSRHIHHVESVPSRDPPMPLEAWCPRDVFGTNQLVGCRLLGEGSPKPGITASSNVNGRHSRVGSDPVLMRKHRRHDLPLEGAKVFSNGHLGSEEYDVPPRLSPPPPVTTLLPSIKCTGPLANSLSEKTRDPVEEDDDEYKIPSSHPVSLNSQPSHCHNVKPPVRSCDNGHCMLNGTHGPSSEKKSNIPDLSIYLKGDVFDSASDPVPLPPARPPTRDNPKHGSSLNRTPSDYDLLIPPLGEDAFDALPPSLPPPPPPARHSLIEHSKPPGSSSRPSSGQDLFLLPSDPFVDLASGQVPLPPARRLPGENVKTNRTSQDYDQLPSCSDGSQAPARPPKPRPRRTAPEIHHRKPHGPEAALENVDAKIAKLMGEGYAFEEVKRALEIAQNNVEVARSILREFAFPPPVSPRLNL

SMILES | IC50 (Cbl-b) [nM] | EC50 (Jurkat cells; Homo sapiens) [nM] | EC50 (Jurkat cells) [nM]
COCNCC1=CC2C(N1)C(=O)N(c1cc(-c3ccc(F)cc3-n3nncc3C)cc(C3CC3)n1)CC2C(F)(F)F (stereo not drawn) [Example 130, 6-[6-cyclopropyl-4-[4-fluoro-2-(5-methyltriazol-1-yl)phenyl]pyridin-2-yl]-2-[(methoxymethylamino)methyl]-4-(trifluoromethyl)-3a,4,5,7a-tetrahydro-1H-pyrrolo[2,3-c]pyridin-7-one] | < 100 |  | < 100
C[C@@H]1CN(Cc2cc3c(C4CC4)cn(-c4cc(-c5cc(F)c(F)cc5-c5nccn5C)cc(C5CC5)n4)c(=O)c3[nH]2)CCO1 [Example 66, 2-{[(R)-2-methyl-4-morpholinyl]methyl}-4-cyclopropyl-6-{6-cyclopropyl-4-[4,5-difluoro-2-(1-methyl-2-imidazolyl)phenyl]-2-pyridyl}-1,6-dihydro-1,6-diaza-7-indenone] | < 100 | 100 to 1000 | 
CCOc1cc(-c2ccc(F)cc2-c2nncn2C)cc(-n2cc(C3CC3)c3cc(CN4CCC[C@H](C)C4)[nH]c3c2=O)n1 [Example 9, 2-{[(S)-3-Methyl-1-piperidyl]methyl}-4-cyclopropyl-6-{6-ethoxy-4-[4-fluoro-2-(4-methyl-4H-1,2,4-triazol-3-yl)phenyl]-2-pyridyl}-1,6-dihydro-1,6-diaza-7-indenone] | < 100 | < 100 | 
C[C@H]1CCCN(Cc2cc3c(C4CC4)cn(-c4cc(-c5ccc(C#N)cc5-c5nccn5C(F)F)cc(C5CC5)n4)c(=O)c3[nH]2)C1 [Example 15, 4-[2-(2-{1[(S)-3-methyl-1-piperidyl]methyl}-4-cyclopropyl-7-oxo-1,6-dihydro-1,6-diaza-6-indenyl)-6-cyclopropyl-4-pyridyl]-3-[1-(difluoromethyl)-2-imidazolyl]benzonitrile] | < 100 | < 100 | 
[2H]C([2H])([2H])n1ccnc1-c1cc(C#N)ccc1-c1cc(C2CC2)nc(-n2cc(C3CC3)c3cc(CN4CCC[C@H](C)C4)[nH]c3c2=O)c1 [Example 14, 4-[2-(2-{[(S)-3-methyl-1-piperidyl]methyl}-4-cyclopropyl-7-oxo-1,6-dihydro-1,6-diaza-6-indenyl)-6-cyclopropyl-4-pyridyl]-3-{1-[(^2H3)methyl]-2-imidazolyl}benzonitrile] | < 100 | < 100 | 
COCCNCc1cc2c(C(F)(F)F)cn(-c3cc(-c4ccc(F)cc4-n4nccc4C(F)(F)F)cc(C4CC4)n3)c(=O)c2[nH]1 [Example 142, 6-[6-cyclopropyl-4-[4-fluoro-2-[5-(trifluoromethyl)pyrazol-1-yl]phenyl]pyridin-2-yl]-2-[(2-methoxyethylamino)methyl]-4-(trifluoromethyl)-1H-pyrrolo[2,3-c]pyridin-7-one] | < 100 | 100 to 1000 | 
Cn1cnnc1-c1cc(F)ccc1-c1cc(C2CC2)nc(-n2cnc3cc(CC4CCOCC4)[nH]c3c2=O)c1 [Example 122, 3-[6-cyclopropyl-4-[4-fluoro-2-(4-methyl-1,2,4-triazol-3-yl)phenyl]pyridin-2-yl]-6-(oxan-4-ylmethyl)-5H-pyrrolo[3,2-d]pyrimidin-4-one] | < 100 | 100 to 1000 | 
Cc1cncnc1-c1cc(F)ccc1-c1cc(C2CC2)nc(N2Cc3ccc(CN4CCC[C@H](C)C4)cc3C2=O)c1 [Example 143, 2-[6-Cyclopropyl-4-[4-fluoro-2-(5-methylpyrimidin-4-yl)phenyl]pyridin-2-yl]-6-[[(3S)-3-methylpiperidin-1-yl]methyl]-3H-isoindol-1-one] | < 100 | 1000 to 5000 | 
C[C@H]1CCCN(Cc2cc3c(C4CC4)cn(-c4cc(-c5ccc(C#N)cc5-c5nccn5C)cc(C(F)(F)F)n4)c(=O)c3[nH]2)C1 [Example 16, 4-[2-(2-{[(S)-3-methyl-1-piperidyl]methyl}-4-cyclopropyl-7-oxo-1,6-dihydro-1,6-diaza-6-indenyl)-6-(trifluoromethyl)-4-pyridyl]-3-(1-methyl-2-imidazolyl)benzonitrile] | < 100 | < 100 | 
C[C@H]1CCCN(Cc2cc3c(C4CC4)cn(-c4cc(-c5c(-c6nncn6C)cnn5C)cc(Cl)n4)c(=O)c3[nH]2)C1 [Example 25, 2-{[(S)-3-Methyl-1-piperidyl]methyl}-6-{6-chloro-4-[1-methyl-4-(4-methyl-4H-1,2,4-triazol-3-yl)-5-pyrazolyl]-2-pyridyl}-4-cyclopropyl-1,6-dihydro-1,6-diaza-7-indenone] | < 100 | < 100 | 
C[C@H]1CCCN(Cc2cc3c(C4CC4)cn(-c4cc(-c5ccc(C#N)cc5-c5nc(C(F)(F)F)cn5C)cc(C5CC5)n4)c(=O)c3[nH]2)C1 [Example 117, 4-[2-(2-{[(S)-3-methyl-1-piperidyl]methyl}-4-cyclopropyl-7-oxo-1,6-dihydro-1,6-diaza-6-indenyl)-6-cyclopropyl-4-pyridyl]-3-[1-methyl-4-(trifluoromethyl)-2-imidazolyl]benzonitrile] | < 100 | 100 to 1000 | 
C[C@H]1CCCN(Cc2cc3c(C4CC4)cn(-c4cc(-c5ccc(F)cc5-c5nncn5C)cc(C5CC5)n4)c(=O)c3[nH]2)C1 [Example 10, 2-{[(S)-3-Methyl-1-piperidyl]methyl}-4-cyclopropyl-6-{6-cyclopropyl-4-[4-fluoro-2-(4-methyl-4H-1,2,4-triazol-3-yl)phenyl]-2-pyridyl}-1,6-dihydro-1,6-diaza-7-indenone] | < 100 |  | 
C[C@H]1CCCN(Cc2cc3c(C4CC4)cn(-c4cc(-c5ccc(C#N)cc5-c5nccn5C)cc(C5CC5)n4)c(=O)c3[nH]2)C1 [Example 13, 4-[2-(2-{[(S)-3-methyl-1-piperidyl]methyl}-4-cyclopropyl-7-oxo-1,6-dihydro-1,6-diaza-6-indenyl)-6-cyclopropyl-4-pyridyl]-3-(1-methyl-2-imidazolyl)benzonitrile] | < 100 |  | 

Continued, in another order:

IC50 (Cbl-b) [nM] | EC50 (Jurkat cells; Homo sapiens) [nM] | SMILES | EC50 (Jurkat cells) [nM]
< 100 |  | COCCNCc1cc2ncn(-c3cc(-c4ccc(F)cc4-c4ncoc4C)cc(C4CC4)n3)c(=O)c2[nH]1 [Example 78, 6-{6-cyclopropyl-4-[4-fluoro-2-(5-methyl-1,3-oxazol-4-yl)phenyl]-2-pyridyl}-2-[(2-methoxyethylamino)methyl]-1,6-dihydro-1,4,6-triaza-7-indenone] | 
< 100 |  | CO[C@@H](C)CN(C)Cc1cc2ncn(-c3cc(-c4ccc(F)cc4-c4nc(C#N)cn4C)cc(C4CC4)n3)c(=O)c2[nH]1 [Example 113, 2-[2-[2-cyclopropyl-6-[6-[[[(2S)-2-methoxypropyl]-methylamino]methyl]-4-oxo-5H-pyrrolo[3,2-d]pyrimidin-3-yl]pyridin-4-yl]-5-fluorophenyl]-1-methyl-imidazole-4-carbonitrile] | 
< 100 |  | CO[C@@H](C)CNCc1nc2c(C(F)(F)F)cn(-c3cc(-c4ccc(F)cc4-c4ncoc4C)cc(C4CC4)n3)c(=O)c2[nH]1 [Example 49, 2-{[(S)-2-methoxypropylamino]methyl}-5-{6-cyclopropyl-4-[4-fluoro-2-(5-methyl-1,3-oxazol-4-yl)phenyl]-2-pyridyl}-7-(trifluoromethyl)-3,5-dihydro-1,3,5-triaza-4-indenone] | 
< 100 |  | CCOCCNCc1cc2ncn(-c3cc(-c4ccc(F)cc4-c4ncoc4C)cc(C4CC4)n3)c(=O)c2[nH]1 [Example 80, 6-{6-cyclopropyl-4-[4-fluoro-2-(5-methyl-1,3-oxazol-4-yl)phenyl]-2-pyridyl}-2-[(2-ethoxyethylamino)methyl]-1,6-dihydro-1,4,6-triaza-7-indenone] | 
< 100 |  | COC[C@H](C)NCc1cc2ncn(-c3cc(-c4ccc(F)cc4-c4ncoc4C)cc(C4CC4)n3)c(=O)c2[nH]1 [Example 79, 2-{[(S)-2-methoxy-1-methylethylamino]methyl}-6-{6-cyclopropyl-4-[4-fluoro-2-(5-methyl-1,3-oxazol-4-yl)phenyl]-2-pyridyl}-1,6-dihydro-1,4,6-triaza-7-indenone] | 
< 100 |  | COCCNCc1cc2ncn(-c3cc(-c4ccc(C#N)cc4-c4ncoc4C)cc(C4CC4)n3)c(=O)c2[nH]1 [Example 72, 4-(6-cyclopropyl-2-{2-[(2-methoxyethylamino)methyl]-7-oxo-1,6-dihydro-1,4,6-triaza-6-indenyl}-4-pyridyl)-3-(5-methyl-1,3-oxazol-4-yl)benzonitrile] | 
